Source: US10413501B2, “Cosmetic composition containing halomonas ferment extract, and use thereof” (LUBRIZOL ADVANCED MATERIALS, INC., priority 2014, dated 2019)

System: Primary Human Subcutaneous Preadipocytes
Type: cell-based
Conditions: 2.5 ug/mL
Procedure: Quantification of adipogenesis is evaluated with AdipoRed™ Adipogenesis Assay Reagent (Lonza). The increase of the accumulation of lipids is determined by measuring the fluorescence signal of Nile Red in primary human Primary Human Subcutaneous Preadipocytes after treatment with exopolysaccharide produced by the strain of Halomonas eurihalina species with deposit number LMG P-28571 obtained in accordance with example 1 in Adipocyte Differentiation Medium. Cells treated with Adipocyte Differentiation Medium alone are used as a basal control. Human preadipocytes (from a donor) (ZENBIO) are seeded (13,000 cells/well, 5 wells per condition) in 96-clear well plates in Preadipocyte Growth Medium (ZENBIO). The cells are incubated for 24 hours at 37° C. in a water-saturated atmosphere of 95% air and 5% CO2. […] In the basal control, preadipocytes are treated with the Adipocyte Differentiation Medium only. As a negative control, preadipocytes are treated with the Adipocyte Differentiation Medium and caffeine. Quantification of the accumulation of lipids is carried out by AdipoRed™ reagent (LONZA) assay. […] The percentage of normalized lipid accumulation compared with the basal control is calculated.

In the case of `Cn1c(=O)c2c(ncn2C)n(C)c1=O` [Caffeine, caffeine], the “% Lipid accumulation vs basal control” value is reported as 87.50%.
